Among the data in ChEMBL document CHEMBL1126336, “Benzopyranyl-cyanoguanidine potassium channel openers” (Bioorg Med Chem Lett, 1992) are IC50 and Max decrease values, retold here.

Holding throughout (type): functional
For assay [1], the species on record is Rattus norvegicus. Kind of assay: Vasorelaxant potency required to relax methoxamine contracted male Wistar Kyoto rat thoracic aorta.
In assay [2] the test system is Rattus norvegicus. In words: Antihypertensive activity expressed as percent maximum decrease in blood pressure at 45 umol/kg for 12-18 hrs in male spontaneously hypertensive rats when administered perorally.
In assay [3] the test system is Rattus norvegicus. In words: Antihypertensive activity expressed as percent maximum decrease in blood pressure at 45 umol/kg for 18-24 hrs in male spontaneously hypertensive rats when administered perorally.
Assay [4] has as its system Rattus norvegicus. Kind of assay: Antihypertensive activity expressed as percent maximum decrease in blood pressure at 45 umol/kg for 6-12 hrs in male spontaneously hypertensive rats when administered perorally.
The subject of assay [5] is Rattus norvegicus. Kind of assay: Antihypertensive activity expressed as percent maximum decrease in blood pressure at 45 umol/kg for 0-6 hrs in male spontaneously hypertensive rats when administered perorally.

In the assay filed under Rattus norvegicus [1], `CC1(C)Oc2ccc(C#N)cc2[C@@H](/N=C(\NC#N)N2CCN(Cc3ccccc3)CC2)[C@@H]1O` had an IC50 of 13100 nM.

As for `CN(C)CC/N=C(/NC#N)N[C@@H]1c2cc(C#N)ccc2OC(C)(C)[C@H]1O`, the IC50 in the assay listed under Rattus norvegicus [1] is above 100000 nM. On the same count and under the same terms, the figure for `CC1(C)Oc2ccc(C#N)cc2[C@@H](/N=C(\NC#N)N2CCCC2)[C@@H]1O` is 34 nM; for `CC1(C)Oc2ccc(C#N)cc2[C@@H](/N=C(/N)NC#N)[C@@H]1O` it is 320 nM; for `CC/N=C(/NC#N)N[C@@H]1c2cc(C#N)ccc2OC(C)(C)[C@H]1O` it is 380 nM.

`CC1(C)Oc2ccc(C#N)cc2[C@@H](N2CCCN=C2NC#N)[C@@H]1O` gave an IC50 in the assay filed under Rattus norvegicus [1] of 120 nM. For `CCC(C)(C)/N=C(\NC#N)N[C@@H]1c2cc(C#N)ccc2OC(C)(C)[C@H]1O`, half-maximal inhibition in the assay filed under Rattus norvegicus [1] (IC50) was put at 29800 nM. Against the preceding molecule, the IC50 is about 250-fold higher. On to `COCC/N=C(/NC#N)N[C@@H]1c2cc(C#N)ccc2OC(C)(C)[C@H]1O`, for which the IC50 in the assay filed under Rattus norvegicus [1] came out at 1690 nM. This IC50 is about 18-fold lower than that of the molecule before. The same measure, in the same setting: then `CN(C)/C(=N/[C@@H]1c2cc(C#N)ccc2OC(C)(C)[C@H]1O)NC#N`, with 490 nM; and `CC(C)/N=C(/NC#N)N[C@@H]1c2cc(C#N)ccc2OC(C)(C)[C@H]1O`, with 660 nM. Same read-out and setting: then `CC1(C)Oc2ccc(C#N)cc2[C@@H](N2CCN=C2NC#N)[C@@H]1O`, with 470 nM. As to `C/N=C(\NC#N)N[C@@H]1c2cc(C#N)ccc2OC(C)(C)[C@H]1O`, the Max decrease in the assay with Rattus norvegicus [2] was 23%; in the assay on Rattus norvegicus [3], 15%; with Rattus norvegicus [4], 44%; with Rattus norvegicus [5], 46%. The molecule also gave an IC50 in the assay filed under Rattus norvegicus [1] of 200 nM.

For the molecule `CC1(C)Oc2ccc(C#N)cc2[C@@H](N2CCCC2=O)[C@@H]1O` [CROMAKALIM], the Max decrease turned out to be 37% with Rattus norvegicus [2], 42% in the assay with Rattus norvegicus [3], 35% in the assay with Rattus norvegicus [4] and 63% with Rattus norvegicus [5]. `CC(N/C(=N\C#N)Nc1ccncc1)C(C)(C)C` (centres undefined) [PINACIDIL ANHYDROUS]: the Max decrease is on record as 23% in the assay with Rattus norvegicus [2], 14% with Rattus norvegicus [3], 21% with Rattus norvegicus [4] and 40% in the assay on Rattus norvegicus [5].
